Laboratory results reported in ChEMBL document CHEMBL1909046, “DrugMatrix in vitro pharmacology data”.

Columns and labels:
[1] = biological target: Beta-1 adrenergic receptor (Homo sapiens, UniProt P08588); assay: DRUGMATRIX: Adrenergic beta1 radioligand binding (ligand: [125I] Cyanopindolol); format: cell membranes, CHO-K1, Membrane; conditions: cho-k1; Not Active = under 50% inhibition at 10 µM
[2] = DRUGMATRIX: Serotonin (5-Hydroxytryptamine) 5-HT3 radioligand binding (ligand: [3H] GR-65630); format: cell membranes, Membrane; conditions: hek293; Not Active = under 50% inhibition at 10 µM
[3] = biological target: T1, C-X-C chemokine receptor type 2 (Homo sapiens, UniProt P25025); format: cell membranes, Membrane; conditions: cho-k1; further: in other assays of this panel Not Active means under 50% inhibition at 10 µM
T1 sequence (P25025 whole entry): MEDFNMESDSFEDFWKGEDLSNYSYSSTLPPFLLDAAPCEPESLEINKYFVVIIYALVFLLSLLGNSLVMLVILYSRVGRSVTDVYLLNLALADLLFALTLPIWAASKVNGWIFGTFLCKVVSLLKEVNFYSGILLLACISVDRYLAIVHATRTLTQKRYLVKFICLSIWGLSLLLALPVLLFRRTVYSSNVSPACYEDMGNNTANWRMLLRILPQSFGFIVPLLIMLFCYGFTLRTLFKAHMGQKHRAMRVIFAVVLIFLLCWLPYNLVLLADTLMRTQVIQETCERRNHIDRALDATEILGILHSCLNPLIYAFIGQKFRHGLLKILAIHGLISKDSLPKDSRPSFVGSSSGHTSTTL

[4] = biological target: D(1A) dopamine receptor (Homo sapiens, UniProt P21728); assay: DRUGMATRIX: Dopamine D1 radioligand binding (ligand: [3H] SCH-23390); format: cell membranes, CHO, Membrane; conditions: cho; Not Active = under 50% inhibition at 10 µM
Chain of D(1A) dopamine receptor (P21728 whole entry): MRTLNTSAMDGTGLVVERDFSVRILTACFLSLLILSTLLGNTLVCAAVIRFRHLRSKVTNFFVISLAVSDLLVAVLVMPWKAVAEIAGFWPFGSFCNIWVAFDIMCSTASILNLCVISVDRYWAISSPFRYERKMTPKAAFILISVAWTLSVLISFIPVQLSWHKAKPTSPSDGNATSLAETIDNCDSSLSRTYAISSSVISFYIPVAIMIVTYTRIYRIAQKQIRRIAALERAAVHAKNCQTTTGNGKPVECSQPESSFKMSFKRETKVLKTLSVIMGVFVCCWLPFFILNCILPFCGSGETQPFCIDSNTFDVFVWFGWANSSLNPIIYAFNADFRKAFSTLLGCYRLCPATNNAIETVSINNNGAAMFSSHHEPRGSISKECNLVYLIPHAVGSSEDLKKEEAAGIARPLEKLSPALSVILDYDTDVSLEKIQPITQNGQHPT

[5] = biological target: Insulin receptor (Rattus norvegicus, UniProt P15127); format: cell membranes, Wistar, Liver, Membrane; further: in other assays of this panel Not Active means under 50% inhibition at 10 µM
Chain of Insulin receptor (P15127 27-759 limits assumed): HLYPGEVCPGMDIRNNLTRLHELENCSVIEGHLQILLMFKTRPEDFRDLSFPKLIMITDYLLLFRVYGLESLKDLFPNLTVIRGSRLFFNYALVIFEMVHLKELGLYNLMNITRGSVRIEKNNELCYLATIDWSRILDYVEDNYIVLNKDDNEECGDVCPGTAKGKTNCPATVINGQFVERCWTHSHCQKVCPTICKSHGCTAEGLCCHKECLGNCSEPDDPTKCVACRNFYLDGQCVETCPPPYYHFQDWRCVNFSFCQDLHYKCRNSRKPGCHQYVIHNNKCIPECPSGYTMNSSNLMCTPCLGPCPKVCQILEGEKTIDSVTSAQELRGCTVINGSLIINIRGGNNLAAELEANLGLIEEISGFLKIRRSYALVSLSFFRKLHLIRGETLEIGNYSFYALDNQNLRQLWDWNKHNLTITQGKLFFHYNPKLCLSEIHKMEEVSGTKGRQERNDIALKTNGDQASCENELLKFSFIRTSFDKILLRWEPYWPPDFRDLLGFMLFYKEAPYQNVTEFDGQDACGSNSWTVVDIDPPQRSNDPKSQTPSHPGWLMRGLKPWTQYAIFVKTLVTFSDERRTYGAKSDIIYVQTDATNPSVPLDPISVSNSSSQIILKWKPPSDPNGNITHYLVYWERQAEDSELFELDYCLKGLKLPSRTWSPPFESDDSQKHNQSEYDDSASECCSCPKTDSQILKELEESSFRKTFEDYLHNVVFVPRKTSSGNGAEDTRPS
Chain of Insulin receptor (P15127 764-1383 limits assumed): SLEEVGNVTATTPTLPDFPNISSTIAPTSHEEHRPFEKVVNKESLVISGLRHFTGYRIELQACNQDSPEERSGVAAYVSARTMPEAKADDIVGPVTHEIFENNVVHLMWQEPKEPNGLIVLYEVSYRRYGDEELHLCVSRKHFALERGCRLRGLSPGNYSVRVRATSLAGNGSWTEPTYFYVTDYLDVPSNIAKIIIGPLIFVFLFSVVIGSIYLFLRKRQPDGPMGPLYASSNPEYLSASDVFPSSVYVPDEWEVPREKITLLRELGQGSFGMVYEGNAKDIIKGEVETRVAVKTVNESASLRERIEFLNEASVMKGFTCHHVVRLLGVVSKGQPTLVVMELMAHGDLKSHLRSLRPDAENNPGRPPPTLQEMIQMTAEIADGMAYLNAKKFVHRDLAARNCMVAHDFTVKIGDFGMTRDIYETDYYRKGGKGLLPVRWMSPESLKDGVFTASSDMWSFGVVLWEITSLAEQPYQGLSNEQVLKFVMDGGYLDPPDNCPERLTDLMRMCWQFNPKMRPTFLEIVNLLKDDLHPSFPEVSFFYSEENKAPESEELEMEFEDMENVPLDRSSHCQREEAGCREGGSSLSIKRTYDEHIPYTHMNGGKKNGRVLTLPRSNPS

[6] = DRUGMATRIX: Interleukin IL-1 radioligand binding (ligand: [125I] interleukin 1beta); format: cell membranes, Membrane; conditions: nih3t3; Not Active = under 50% inhibition at 10 µM
[7] = biological target: T2, Interstitial collagenase (Homo sapiens, UniProt P03956); assay: biochemical; format: tissue-based, Rheumatoid synovial fibroblasts;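 further: MMP-1 enzyme inhibition assay using a peptide substrate; in other assays of this panel Not Active means under 50% inhibition at 10 µM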
T2 sequence (P03956 whole entry): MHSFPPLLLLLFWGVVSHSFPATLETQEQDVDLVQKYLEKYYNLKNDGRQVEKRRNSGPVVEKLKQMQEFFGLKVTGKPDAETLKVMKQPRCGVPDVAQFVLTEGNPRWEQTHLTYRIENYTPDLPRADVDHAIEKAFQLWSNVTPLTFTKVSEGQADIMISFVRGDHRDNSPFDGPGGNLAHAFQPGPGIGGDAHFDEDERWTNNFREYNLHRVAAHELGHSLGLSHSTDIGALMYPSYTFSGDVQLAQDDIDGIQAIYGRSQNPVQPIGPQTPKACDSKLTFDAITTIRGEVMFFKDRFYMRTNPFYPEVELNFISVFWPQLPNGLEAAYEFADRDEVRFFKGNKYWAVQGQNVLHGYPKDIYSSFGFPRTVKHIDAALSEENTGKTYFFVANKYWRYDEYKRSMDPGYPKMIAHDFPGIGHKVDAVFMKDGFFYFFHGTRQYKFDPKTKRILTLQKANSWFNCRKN

[8] = biological target: T3, Adenosine receptor A3 (Homo sapiens, UniProt P0DMS8); format: cell membranes, CHO-K1, Membrane; conditions: for Ki: read-out: Ki;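 on all read-outs here: radioligand binding assay with AB-MECA serving as the labeled ligand; in other assays of this panel Not Active means under 50% inhibition at 10 µM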
T3 sequence (P0DMS8 whole entry): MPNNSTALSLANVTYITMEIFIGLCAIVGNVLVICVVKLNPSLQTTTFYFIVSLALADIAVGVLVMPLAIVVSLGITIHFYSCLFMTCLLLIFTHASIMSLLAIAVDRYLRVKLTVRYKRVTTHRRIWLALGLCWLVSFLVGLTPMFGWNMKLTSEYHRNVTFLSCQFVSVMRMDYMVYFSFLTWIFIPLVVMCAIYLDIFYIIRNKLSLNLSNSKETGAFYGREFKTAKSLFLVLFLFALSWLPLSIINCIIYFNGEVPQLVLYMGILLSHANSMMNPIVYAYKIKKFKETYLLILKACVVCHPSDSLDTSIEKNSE

[9] = biological target: Estrogen receptor beta (Homo sapiens, UniProt Q92731); conditions: sf9; further: in other assays of this panel Not Active means under 50% inhibition at 10 µM
Chain of Estrogen receptor beta (Q92731 whole entry): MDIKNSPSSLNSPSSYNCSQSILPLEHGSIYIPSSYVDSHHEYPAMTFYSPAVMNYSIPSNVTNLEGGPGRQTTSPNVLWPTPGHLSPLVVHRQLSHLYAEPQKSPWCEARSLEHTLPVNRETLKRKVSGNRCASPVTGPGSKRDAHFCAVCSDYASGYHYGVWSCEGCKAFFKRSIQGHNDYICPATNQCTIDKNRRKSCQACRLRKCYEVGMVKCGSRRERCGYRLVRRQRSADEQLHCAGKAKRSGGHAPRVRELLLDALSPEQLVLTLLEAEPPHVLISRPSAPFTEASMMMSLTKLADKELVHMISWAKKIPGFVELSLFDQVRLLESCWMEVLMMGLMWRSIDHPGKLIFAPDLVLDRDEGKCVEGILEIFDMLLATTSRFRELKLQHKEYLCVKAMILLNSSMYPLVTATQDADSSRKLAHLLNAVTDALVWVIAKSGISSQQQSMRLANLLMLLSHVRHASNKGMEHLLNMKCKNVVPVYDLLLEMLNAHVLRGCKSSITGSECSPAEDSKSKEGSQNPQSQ

Chain of Beta-1 adrenergic receptor (P08588 whole entry): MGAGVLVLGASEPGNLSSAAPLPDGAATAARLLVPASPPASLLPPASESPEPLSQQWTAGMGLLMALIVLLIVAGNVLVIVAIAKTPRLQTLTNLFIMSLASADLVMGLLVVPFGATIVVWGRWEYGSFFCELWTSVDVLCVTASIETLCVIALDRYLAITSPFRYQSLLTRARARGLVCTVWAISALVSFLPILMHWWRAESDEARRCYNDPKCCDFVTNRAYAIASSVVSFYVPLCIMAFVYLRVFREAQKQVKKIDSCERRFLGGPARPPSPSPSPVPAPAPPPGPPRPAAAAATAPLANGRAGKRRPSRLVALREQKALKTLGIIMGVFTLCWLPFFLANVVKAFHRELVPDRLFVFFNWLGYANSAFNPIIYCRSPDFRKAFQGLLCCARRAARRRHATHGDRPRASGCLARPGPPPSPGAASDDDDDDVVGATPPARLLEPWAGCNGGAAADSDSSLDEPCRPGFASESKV

SMILES | IC50 [1] | IC50 [2] | Ki [2] | IC50 [3] | IC50 [4] | IC50 [5] | IC50 [6] | Ki [6] | IC50 [7] | IC50 ([8]; read-out: IC50) [µM] | Ki [8] [µM] | IC50 [9] | IC50 ([8]; cho-k1)
Cc1c(C)c2c(c(C)c1O)CCC(C)(CN1CCN(c3cc(N4CCCC4)nc(N4CCCC4)n3)CC1)O2 (centres undefined) | Not Active | Not Active | Not Active | Not Active | Not Active | Not Active | Not Active | Not Active | Not Active | 10.8 | 6.08 | Not Active | 
COc1ccc(CCN(C)CCCC(C#N)(c2ccc(OC)c(OC)c2)C(C)C)cc1OC (centres undefined) | Not Active | Not Active | Not Active | Not Active | Not Active | Not Active | Not Active | Not Active | Not Active |  |  | Not Active | Not Active
CC(C)Cc1ccc([C@@H](C)C(=O)O)cc1 [(R)-IBUPROPHEN] | Not Active | Not Active | Not Active | Not Active | Not Active | Not Active | Not Active | Not Active | Not Active |  |  | Not Active | Not Active
CN(C)CCOC(c1ccccc1)c1ccccc1 [DIPHENHYDRAMINE] | Not Active |  |  | Not Active |  | Not Active |  |  | Not Active |  |  | Not Active | Not Active
Clc1ccc(COC(Cn2ccnc2)c2ccc(Cl)cc2Cl)cc1 (centres undefined) [ECONAZOLE] |  |  |  | Not Active |  | Not Active |  |  | Not Active |  |  | Not Active | 
CCN(CC)CCOc1ccc(/C(=C(/Cl)c2ccccc2)c2ccccc2)cc1 [ENCLOMIPHENE] | Not Active |  |  | Not Active |  | Not Active |  |  | Not Active |  |  | Not Active | 
Fc1ccc(C(c2ccc(F)cc2)N2CCN(C/C=C/c3ccccc3)CC2)cc1 [FLUNARIZINE] | Not Active |  |  | Not Active |  | Not Active |  |  | Not Active | 5.2 | 2.94 | Not Active | 
CNCCC(Oc1ccc(C(F)(F)F)cc1)c1ccccc1 (centres undefined) [FLUOXETINE] | Not Active |  |  | Not Active |  | Not Active |  |  | Not Active |  |  | Not Active | Not Active
Cc1ccc(NC(=O)c2ccc(CN3CCN(C)CC3)cc2)cc1Nc1nccc(-c2cccnc2)n1 [IMATINIB] | Not Active |  |  | Not Active |  | Not Active |  |  | Not Active |  |  | Not Active | Not Active
CC(C)Oc1ccc2c(=O)c(-c3ccccc3)coc2c1 [IPRIFLAVONE] | Not Active | Not Active | Not Active | Not Active | Not Active | Not Active | Not Active | Not Active | Not Active |  |  |  | Not Active
CC(C)NCC(O)c1ccc(O)c(O)c1 (centres undefined) [ISOPROTERENOL] |  | Not Active | Not Active | Not Active | Not Active | Not Active | Not Active | Not Active | Not Active |  |  | Not Active | Not Active
CNC1(c2ccccc2Cl)CCCCC1=O (centres undefined) [KETAMINE] | Not Active | Not Active | Not Active | Not Active | Not Active | Not Active | Not Active | Not Active | Not Active |  |  | Not Active | Not Active
CO[C@@H]1[C@@H](OC)[C@H](C)[C@@](O)(CC(=O)O)O[C@H]1[C@H](C)[C@H]1O[C@@]2(CC[C@@](C)([C@H]3CC[C@@](C)([C@@H]4O[C@@H]([C@H]5O[C@](C)(O)[C@H](C)C[C@@H]5C)C[C@@H]4O[C@@H]4C[C@H](OC)[C@@H](OC)[C@H](C)O4)O3)O2)C[C@H](O)[C@H]1C [MADURAMICIN ACID] | Not Active | Not Active | Not Active | Not Active |  | Not Active | Not Active | Not Active | Not Active |  |  |  | Not Active
C[C@H]1C[C@@H]2[C@H]([C@@H](O)C[C@@]3(C)[C@H]2CC[C@]3(O)C(=O)CO)[C@@]2(C)C=CC(=O)C=C12 [METHYLPREDNISOLONE] | Not Active | Not Active | Not Active | Not Active | Not Active | Not Active | Not Active | Not Active | Not Active |  |  |  | Not Active
Cc1cccc(C)c1OCC(C)N (centres undefined) [MEXILETINE] | Not Active | Not Active | Not Active | Not Active | Not Active | Not Active | Not Active | Not Active | Not Active |  |  |  | Not Active
O=C(Oc1ccccc1C(=O)O)c1ccccc1O [SALSALATE] | Not Active | Not Active | Not Active | Not Active | Not Active | Not Active | Not Active | Not Active | Not Active |  |  |  | Not Active
O=C(O)c1cn(-c2ccc(F)cc2)c2cc(N3CCNCC3)c(F)cc2c1=O [SARAFLOXACIN] | Not Active | Not Active | Not Active | Not Active | Not Active | Not Active | Not Active | Not Active | Not Active |  |  |  | Not Active
CN[C@H]1CC[C@@H](c2ccc(Cl)c(Cl)c2)c2ccccc21 [SERTRALINE] | Not Active |  |  | Not Active |  | Not Active |  |  | Not Active |  |  | Not Active | Not Active
CC(C)NCC(O)c1ccc(NS(C)(=O)=O)cc1 (centres undefined) [SOTALOL] |  | Not Active | Not Active | Not Active | Not Active | Not Active | Not Active | Not Active | Not Active |  |  | Not Active | Not Active
O.O.O.O.O.O.[Cl-].[Cl-].[Sr+2] [STRONTIUM CHLORIDE HEXAHYDRATE] | Not Active | Not Active | Not Active | Not Active | Not Active | Not Active | Not Active | Not Active | Not Active |  |  |  | Not Active
O=C1C(CC[S+]([O-])c2ccccc2)C(=O)N(c2ccccc2)N1c1ccccc1 (centres undefined) [SULFINPYRAZONE] | Not Active | Not Active | Not Active | Not Active | Not Active | Not Active | Not Active | Not Active | Not Active |  |  |  | Not Active
CCCCNc1ccc(C(=O)OCCN(C)C)cc1 [TETRACAINE] | Not Active | Not Active | Not Active | Not Active | Not Active | Not Active | Not Active | Not Active | Not Active |  |  |  | Not Active
Cn1c(=O)c2nc[nH]c2n(C)c1=O.O [THEOPHYLLINE] | Not Active | Not Active | Not Active | Not Active | Not Active | Not Active | Not Active | Not Active | Not Active |  |  |  | Not Active
CS(=O)(=O)c1ccc([C@@H](O)[C@@H](CO)NC(=O)C(Cl)Cl)cc1 [THIAMPHENICOL] | Not Active | Not Active | Not Active | Not Active | Not Active | Not Active | Not Active | Not Active | Not Active |  |  |  | Not Active
